Test results taken from US20190231688A1, “METHOD OF ADMINISTERING EMULSION FORMULATIONS OF AN NK-1 RECEPTOR ANTAGONIST” (Heron Therapeutics, Inc., priority 2018, published 2019).

Assay: Pharmacokinetics of aprepitant emulsion versus fosaprepitant solution, intravenous
Type: in vivo, male Sprague-Dawley rats
Conditions: rat, 14 mg/kg aprepitant equivalent
Description: The pharmacokinetics of an aprepitant emulsion prepared according to Example 1 was determined. Two groups of six male Sprague-Dawley rats each were injected intravenously with, respectively, fosaprepitant in solution or aprepitant emulsion prepared according to Example 1. All drugs were administered at an effective concentration equivalent to 14 mg/kg aprepitant. Blood from all rats was collected at the appropriate time intervals and processed to plasma by centrifugation. Plasma samples were analyzed by LC-MS/MS for aprepitant and fosaprepitant, as appropriate. A plasma concentration versus time curve of aprepitant for the emulsion described in Example 1 and for fosaprepitant is presented in FIG. 2 (fosaprepitant in solution, •; aprepitant emulsion, ▴). The curves indicate the initial aprepitant level reached immediately after injection of the aprepitant emulsion was almost 3 times higher than the initial aprepitant level reached immediately after injection of the fosaprepitant solution.

Q: With `C[C@@H](O[C@H]1OCCN(Cc2nc(O)n(P(=O)(O)O)n2)[C@H]1c1ccc(F)cc1)c1cc(C(F)(F)F)cc(C(F)(F)F)c1` [fosaprepitant] as the compound, how does the “Conversion of fosaprepitant to aprepitant” value read?
A: delay in the conversion of fosaprepitant to aprepitant
